{
  "source": "patent US11419934B2",
  "about": "“Use of VDAS to enhance immunomodulating therapies against tumors” (Oncotelic Therapeutics, Inc., priority 2015, dated 2022)",
  "key": {"[1]": {"tested_on": "EMT-6 mouse mammary tumor cells", "assay": "antitumor activity in mice bearing subcutaneous EMT-6 mouse mammary tumor cells", "type": "in vivo", "experimental": "A randomized trial was conducted to evaluate the antitumor activity of fosbretabulin tromethamine (CA4P) in mice bearing subcutaneous EMT-6 mouse mammary tumor cells in combination with other treatments. Other treatments include a combination treatment with anti-CTLA-4 antibody (ref: BE0131, Bioxcell; clone: 9H10; reactivity: mouse; isotype: Hamster IgG1; storage conditions: +4° C.).\nCA4P and anti-CTLA-4 antibodies were prepared in phosphate buffered saline (PBS). CA4P was injected at the dose of 100 mg/kg. The anti-CTLA-4 antibody was injected at the dose of 10 mg/kg. The tested items were injected into the peritoneal cavity of mice (e.g. intraperitoneally, IP). The administration volume was 10 mL/kg (200 μL/mouse of 20 g) adjusted to the most recent individual body weight of the mice.\nAn EMT-6 cell line having an ATCC origin and a culture medium was used. The EMT-6 cell line was established from a transplantable murine mammary carcinoma that arose in a BALB/cCRGL mouse after implantation of a hyperplastic mammary alveolar nodule. EMT-6 tumor cells were grown as a monolayer at 37° C. in a humidified atmosphere (5% CO2, 95% air). The culture medium was RPMI 1640 containing 2 mM L-glutamine (ref: BE12-702F, Lonza, Verviers, Belgium) supplemented with 10% fetal bovine serum (ref: 3302, Lonza).\nHealthy female Balb/C mice, 6-8 weeks old at reception, were used in the study. […]"}, "[2]": {"tested_on": "T-cell mediated immune response", "conditions": "J. Immunol. 2007; 178: 1573-1580; cited from earlier work"}},
  "data": [
    {"smiles": "COc1ccc(/C=C\\c2cc(OC)c(OC)c(OC)c2)cc1OP(=O)(O)O.NC(CO)(CO)CO", "note": "[CA4P, fosbretabulin tromethamine]", "values": [
      {"measurement": "average tumor size (tumor volume versus time, FIG. 1)", "setting": "[1]; Balb/C mice, EMT-6 tumors, CA4P 100 mg/kg IP, anti-CTLA-4 10 mg/kg IP, TWx2", "value": "steadily increased"},
      {"measurement": "mice showing tumor regression", "setting": "[1]; groups of 8 Balb/C mice, subcutaneous EMT-6 tumors, CA4P 100 mg/kg IP TWx2, anti-CTLA-4 10 mg/kg IP TWx2", "value": "One of the eight"}
    ]},
    {"smiles": "COc1cc2c(c(OC)c1OC)-c1ccc(OP(=O)(O)O)cc1[C@@H](NC(C)=O)CC2", "note": "[ZD6126]", "values": [
      {"measurement": "effect on T-cell mediated immune response", "setting": "[2]", "value": "may reduce T-cell mediated immune response"}
    ]}
  ]
}
